{"source": "patent US10150728B2", "about": "“Alkylene derivatives” (Shionogi & Co., Ltd., priority 2013, dated 2018)", "data": [{"target": "recombinant human ACC2 (Homo sapiens (Human), UniProt O00763)", "sequence (O00763 27-2458)": "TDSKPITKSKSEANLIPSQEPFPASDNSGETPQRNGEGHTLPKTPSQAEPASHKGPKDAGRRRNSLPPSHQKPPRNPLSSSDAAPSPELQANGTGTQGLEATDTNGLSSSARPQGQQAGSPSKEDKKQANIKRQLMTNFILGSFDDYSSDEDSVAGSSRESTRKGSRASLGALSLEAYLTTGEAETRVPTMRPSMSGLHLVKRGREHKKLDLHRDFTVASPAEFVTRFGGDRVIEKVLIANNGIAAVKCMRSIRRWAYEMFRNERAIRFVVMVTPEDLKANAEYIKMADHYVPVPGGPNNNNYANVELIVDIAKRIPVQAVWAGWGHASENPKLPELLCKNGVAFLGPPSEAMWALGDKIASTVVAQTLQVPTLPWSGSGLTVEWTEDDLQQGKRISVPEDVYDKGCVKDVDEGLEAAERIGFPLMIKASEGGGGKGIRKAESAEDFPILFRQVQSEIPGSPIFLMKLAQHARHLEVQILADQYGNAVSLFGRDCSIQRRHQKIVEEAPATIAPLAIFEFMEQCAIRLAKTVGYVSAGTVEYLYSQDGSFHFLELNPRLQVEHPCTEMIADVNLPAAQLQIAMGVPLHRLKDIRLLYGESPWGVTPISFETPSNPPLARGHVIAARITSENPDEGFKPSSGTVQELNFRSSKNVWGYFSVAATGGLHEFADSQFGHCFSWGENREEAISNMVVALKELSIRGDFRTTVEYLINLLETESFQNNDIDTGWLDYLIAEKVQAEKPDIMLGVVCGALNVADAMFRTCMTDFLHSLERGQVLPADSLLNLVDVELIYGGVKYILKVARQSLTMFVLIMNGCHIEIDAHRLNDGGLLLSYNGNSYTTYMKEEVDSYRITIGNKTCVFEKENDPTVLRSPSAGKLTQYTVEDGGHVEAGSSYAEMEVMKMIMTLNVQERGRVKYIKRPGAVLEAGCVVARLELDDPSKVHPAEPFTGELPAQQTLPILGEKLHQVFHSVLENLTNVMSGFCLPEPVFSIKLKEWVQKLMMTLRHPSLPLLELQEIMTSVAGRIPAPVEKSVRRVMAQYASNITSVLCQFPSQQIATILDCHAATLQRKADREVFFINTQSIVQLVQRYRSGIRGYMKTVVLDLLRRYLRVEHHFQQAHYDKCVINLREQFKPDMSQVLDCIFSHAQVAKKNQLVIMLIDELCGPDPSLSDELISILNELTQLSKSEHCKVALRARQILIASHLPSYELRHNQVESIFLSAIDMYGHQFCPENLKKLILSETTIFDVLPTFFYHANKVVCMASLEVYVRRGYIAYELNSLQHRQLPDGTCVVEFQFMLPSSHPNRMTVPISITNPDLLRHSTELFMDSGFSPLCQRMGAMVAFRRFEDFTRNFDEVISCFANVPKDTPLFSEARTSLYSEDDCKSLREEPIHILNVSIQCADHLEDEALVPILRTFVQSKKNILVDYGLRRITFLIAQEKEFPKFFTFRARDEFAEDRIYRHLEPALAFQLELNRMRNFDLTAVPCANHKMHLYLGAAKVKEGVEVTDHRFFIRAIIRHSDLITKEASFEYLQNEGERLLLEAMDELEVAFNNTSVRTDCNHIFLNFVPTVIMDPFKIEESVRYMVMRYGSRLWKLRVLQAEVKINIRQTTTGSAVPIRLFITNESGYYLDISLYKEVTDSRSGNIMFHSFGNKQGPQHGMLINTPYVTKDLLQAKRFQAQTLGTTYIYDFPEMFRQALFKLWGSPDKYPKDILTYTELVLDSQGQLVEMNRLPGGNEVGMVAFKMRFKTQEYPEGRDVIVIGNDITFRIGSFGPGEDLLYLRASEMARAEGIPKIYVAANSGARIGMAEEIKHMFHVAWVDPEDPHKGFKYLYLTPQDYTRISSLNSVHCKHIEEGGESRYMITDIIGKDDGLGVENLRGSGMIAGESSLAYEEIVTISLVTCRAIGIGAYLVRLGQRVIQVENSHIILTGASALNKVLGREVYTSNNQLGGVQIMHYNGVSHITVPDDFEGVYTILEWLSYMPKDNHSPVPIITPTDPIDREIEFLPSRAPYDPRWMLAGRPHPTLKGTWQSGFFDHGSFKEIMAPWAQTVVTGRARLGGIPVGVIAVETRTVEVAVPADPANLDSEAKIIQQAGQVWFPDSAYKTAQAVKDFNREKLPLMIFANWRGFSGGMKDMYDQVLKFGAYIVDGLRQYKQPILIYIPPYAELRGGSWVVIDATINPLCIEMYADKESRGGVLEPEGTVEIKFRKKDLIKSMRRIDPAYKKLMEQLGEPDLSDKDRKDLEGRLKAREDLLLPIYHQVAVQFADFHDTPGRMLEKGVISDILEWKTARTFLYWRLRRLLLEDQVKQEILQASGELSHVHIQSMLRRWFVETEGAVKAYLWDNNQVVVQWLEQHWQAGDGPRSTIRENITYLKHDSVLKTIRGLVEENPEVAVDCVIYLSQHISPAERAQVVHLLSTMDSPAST", "assay": "Measurement of inhibitory activity on human ACC2 (MALDI-TOF MS, acetyl CoA to malonyl CoA conversion)", "format": "biochemical", "details": "Table 154", "summary_of_the_method": "(§1)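 His-tagged human ACC2 (residues 27–2458) from baculovirus-infected Sf-9 cells was preincubated 1 h in pH 7.4 HEPES-KOH buffer with MgCl2, 6-10 mM potassium citrate, glutathione and BSA. Substrate solution held 1 mM ATP, 0.8 mM acetyl CoA and 25-50 mM bicarbonate. After 1–3 h at room temperature, malonyl CoA/(malonyl+acetyl CoA) was read by negative-mode MALDI-TOF MS; citrate, bicarbonate and time varied by enzyme lot.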", "units": {"IC50": "nM"}, "values": [{"compound": "CCOc1nc2ccc(O[C@H]3C[C@H](OC[C@H](C)NC(C)=O)C3)c(Cl)c2s1", "note": "[Compound I-075]", "IC50": 20}, {"compound": "CC(=O)N[C@@H](C)CC(=O)c1ccc(Oc2ccc(OCC3CC3)cc2Cl)nc1", "note": "[Compound I-008]", "IC50": 220}]}, {"target": "recombinant human ACC2 (Homo sapiens (Human), UniProt O00763)", "assay": "Measurement of inhibitory activity on human ACC2 (MALDI-TOF MS, acetyl CoA to malonyl CoA conversion)", "format": "biochemical", "details": "Tables 155-159", "summary_of_the_method": "as §1", "units": {"IC50": "nM"}, "values": [{"compound": "CC(=O)N[C@@H](C)CO[C@H]1C[C@H](COc2nccc(OCC3CC3(F)F)c2Cl)C1", "note": "(some centres unmarked) [Compound I-316]", "IC50": 74}, {"compound": "CC(=O)N[C@@H](C)CO[C@H]1C[C@H](COc2nccc3c2ccn3CC2CC2)C1", "note": "[Compound I-352]", "IC50": 22}, {"compound": "CC(=O)N[C@@H](C)CO[C@H]1CC[C@H](Oc2ccc3nc(OCC4CC4(F)F)n(C)c3n2)CC1", "note": "(some centres unmarked) [Compound I-503]", "IC50": 24}, {"compound": "CC(=O)N[C@@H](C)CO[C@H]1CC[C@H](Oc2ncc3c(Cl)c(OCC4CC4)ccc3n2)CC1", "note": "[Compound I-555]", "IC50": 34}, {"compound": "CC(=O)N[C@@H](C)CO[C@H]1CC[C@H](Oc2ccc3nc(N4CCC4c4ccccc4)sc3c2F)CC1", "note": "(some centres unmarked) [Compound I-237]", "IC50": 891}, {"compound": "CC(=O)N[C@@H](C)CO[C@H]1CC[C@H](Oc2ccc3nc(OCC(F)F)n(C)c3n2)CC1", "note": "[Compound I-499]", "IC50": 40}, {"compound": "CC(=O)N[C@@H](C)CO[C@H]1CC[C@H](Oc2ncc(-c3ncc(F)cn3)cc2C)CC1", "note": "[Compound I-532]", "IC50": 6}, {"compound": "CC(=O)N[C@@H](C)CC[C@H]1CC[C@H](Oc2nc3c(F)cc(OCC(F)F)c(F)c3n2C)CO1", "note": "[Compound I-642]", "IC50": 7}, {"compound": "CC(=O)N[C@@H](C)CO[C@H]1C[C@H](COc2ccc3nc(OC(C)CF)sc3n2)C1", "note": "(some centres unmarked) [Compound I-194]", "IC50": 12}, {"compound": "CC(=O)N[C@@H](C)CO[C@H]1C[C@H](COc2ncnc(OCC3CC3)c2Cl)C1", "note": "[Compound I-355]", "IC50": 18}, {"compound": "CC(=O)N[C@@H](C)CO[C@H]1C[C@H](COc2ncnc3c2c(C)cn3CC2CC2)C1", "note": "[Compound I-426]", "IC50": 57}, {"compound": "CC(=O)N[C@@H](C)CO[C@H]1C[C@H](COc2ncnc(NCc3cccc(Cl)c3)c2Cl)C1", "note": "[Compound I-340]", "IC50": 21}, {"compound": "CC(=O)N[C@@H](C)[C@H](C)O[C@H]1CC[C@H](Oc2nc3cnc(OC4CC4)c(F)c3n2C)CC1", "note": "[Compound I-689]", "IC50": 25}, {"compound": "CC(=O)N[C@@H](C)CO[C@H]1C[C@H](COc2ccc3nc(C(C)C)sc3c2)C1", "note": "[Compound I-128]", "IC50": 50}, {"compound": "CC(=O)N[C@@H](C)CO[C@H]1CC[C@H](Oc2ccc3nc(OC(C)CF)sc3c2Cl)CC1", "note": "(some centres unmarked) [Compound I-112]", "IC50": 31}, {"compound": "CC(=O)N[C@@H](C)CC[C@@H]1CC[C@@H](Oc2nc3c(F)cc(OCC(F)F)c(F)c3n2C)CO1", "note": "[Compound I-627]", "IC50": 5}, {"compound": "COCCOc1ccnc(OC[C@H]2C[C@H](OC[C@H](C)NC(C)=O)C2)c1Cl", "note": "[Compound I-373]", "IC50": 894}, {"compound": "CC(=O)N[C@@H](C)CO[C@H]1C[C@](C)(COc2nccc(-c3ccc(F)cc3)c2Cl)C1", "note": "[Compound I-394]", "IC50": 18}, {"compound": "CC(=O)N[C@@H](C)CO[C@H]1CC[C@H](Nc2nc3c(F)cc(OCC(F)F)c(F)c3n2C)CC1", "note": "[Compound I-744]", "IC50": 740}, {"compound": "CCOc1cccc(COc2ncnc(OC[C@H]3C[C@H](OC[C@H](C)NC(C)=O)C3)c2Cl)c1", "note": "[Compound I-408]", "IC50": 465}, {"compound": "CC(=O)N[C@@H](C)CO[C@H]1C[C@H](COc2ncnc(OCc3nccs3)c2Cl)C1", "note": "[Compound I-409]", "IC50": 74}, {"compound": "CC(=O)N[C@@H](C)CO[C@H]1C[C@H](COc2ncnc(NCc3cccc(C(F)(F)F)c3)c2Cl)C1", "note": "[Compound I-342]", "IC50": 108}, {"compound": "CC(=O)N[C@@H](C)CO[C@H]1C[C@H](COc2ncnc(OCc3ccc(F)cc3)c2Cl)C1", "note": "[Compound I-390]", "IC50": 7}, {"compound": "CC(=O)N[C@@H](C)CO[C@H]1C[C@H](COc2ncnc(/C=C/c3ccccc3)c2C)C1", "note": "[Compound I-416]", "IC50": 90}, {"compound": "CC(=O)N[C@@H](C)CO[C@H]1CC[C@H](Oc2ccc3nc(OC4CC(F)(F)C4)n(C)c3n2)CC1", "note": "[Compound I-497]", "IC50": 15}, {"compound": "CC(=O)N[C@@H](C)CO[C@H]1C[C@H](COc2ncnc(OCc3ccccc3)c2Cl)C1", "note": "[Compound I-376]", "IC50": 7}, {"compound": "CC(=O)N[C@@H](C)CO[C@H]1C[C@](F)(COc2ccc3nc(C(C)(F)F)sc3c2Cl)C1", "note": "[Compound I-137]", "IC50": 403}]}]}
